# Key:
# Assay in all cases: relative viability (nuclei count vs DMSO), 5 days (fraction); higher = more cells survive
# Bortezomib + Linsitinib = compound: CC(C)C[C@H](NC(=O)[C@H](Cc1ccccc1)NC(=O)c1cnccn1)B(O)O [Bortezomib] + C[C@]1(O)C[C@@H](c2nc(-c3ccc4ccc(-c5ccccc5)nc4c3)c3c(N)nccn32)C1 [Linsitinib] (partner 1 µM)
# Summary of the method: (§1)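 Lung cancer cell lines in 1536-well plates got either a single drug or a fixed anchor-drug dose together with five library-drug doses (not always all listed) in √10 steps, by pin tool, on the day after seeding. Nuclei were counted after 5 days, and relative viability is the treated-to-vehicle ratio of nuclei counts. Values are medians of duplicate plates.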
# Obatoclax + Foretinib = compound: COC1=CC(c2cc3ccccc3[nH]2)=N/C1=C\c1[nH]c(C)cc1C [Obatoclax] + COc1cc2c(Oc3ccc(NC(=O)C4(C(=O)Nc5ccc(F)cc5)CC4)cc3F)ccnc2cc1OCCCN1CCOCC1 [Foretinib] (partner 0.25 µM)
# Summary of the method: as §1
# Bortezomib + Pictilisib = compound: CC(C)C[C@H](NC(=O)[C@H](Cc1ccccc1)NC(=O)c1cnccn1)B(O)O [Bortezomib] + CS(=O)(=O)N1CCN(Cc2cc3nc(-c4cccc5[nH]ncc45)nc(N4CCOCC4)c3s2)CC1 [Pictilisib] (partner 1 µM)
# Summary of the method: as §1
# Obatoclax + Alpelisib = compound: COC1=CC(c2cc3ccccc3[nH]2)=N/C1=C\c1[nH]c(C)cc1C [Obatoclax] + Cc1nc(NC(=O)N2CCC[C@H]2C(N)=O)sc1-c1ccnc(C(C)(C)C(F)(F)F)c1 [Alpelisib] (partner 2 µM)
# Summary of the method: as §1
Cell Line,relative viability (Bortezomib + Linsitinib; first compound 0.0002 µM),relative viability (Bortezomib + Linsitinib; first compound 0.000632 µM),relative viability (Bortezomib + Linsitinib; first compound 0.002 µM),relative viability (Bortezomib + Linsitinib; first compound 0.006325 µM),relative viability (Bortezomib + Linsitinib; first compound 0.02 µM),relative viability (Obatoclax + Foretinib; first compound 0.01 µM),relative viability (Obatoclax + Foretinib; first compound 0.03162 µM),relative viability (Obatoclax + Foretinib; first compound 0.1 µM),relative viability (Obatoclax + Foretinib; first compound 0.3162 µM),relative viability (Obatoclax + Foretinib; first compound 1 µM),relative viability (Bortezomib + Pictilisib; first compound 0.0002 µM),relative viability (Bortezomib + Pictilisib; first compound 0.000632 µM),relative viability (Bortezomib + Pictilisib; first compound 0.002 µM),relative viability (Bortezomib + Pictilisib; first compound 0.006325 µM),relative viability (Bortezomib + Pictilisib; first compound 0.02 µM),relative viability (Obatoclax + Alpelisib; first compound 0.01 µM),relative viability (Obatoclax + Alpelisib; first compound 0.03162 µM),relative viability (Obatoclax + Alpelisib; first compound 0.1 µM),relative viability (Obatoclax + Alpelisib; first compound 0.3162 µM),relative viability (Obatoclax + Alpelisib; first compound 1 µM)
LCLC-103H,1.06,1.07,1.25,1.09,0.272,0.792,0.698,0.778,0.668,0.8,0.529,0.509,0.549,0.511,0.383,0.938,0.907,0.97,0.961,1.02
LK-2,0.409,0.551,0.353,0.17,0.142,1.12,1.28,1.51,1.26,1.11,–,0.559,0.295,0.251,0.245,1.07,1.13,1.43,1.07,1.03
LOU-NH91,0.995,0.86,0.383,0.285,0.294,0.918,0.917,0.787,0.904,0.819,0.509,0.479,0.395,0.339,0.317,0.741,0.651,0.66,0.643,0.636
LU99A,0.55,–,0.599,0.337,0.149,0.875,0.792,0.774,0.619,0.714,0.385,–,0.35,0.328,0.169,0.626,0.641,0.567,0.3,0.2
LXF-289,0.946,0.968,1,0.0941,0.0652,0.91,0.988,1.05,0.932,1.02,0.829,0.81,0.717,0.07,0.0457,1.01,0.944,1.04,1.04,0.963
NCI-H23,–,0.574,0.586,0.276,0.114,1.04,1,0.986,0.826,1.01,–,0.407,0.381,0.144,0.131,0.667,0.607,0.691,0.604,0.569
NCI-H322M,0.906,–,0.999,0.831,0.294,0.997,1.02,–,0.853,0.696,0.49,–,0.523,0.459,0.554,0.705,0.819,0.793,0.889,0.781
NCI-H358,0.755,0.622,0.625,0.162,0.141,0.664,0.847,0.668,0.415,0.311,0.331,0.305,0.357,0.207,0.16,0.925,0.848,0.635,0.336,0.283
